The assay has as its target T1, Na^+ -dependent bile acid transport system (Oryctolagus cuniculus, UniProt Q28727).
T1 construct: Preparation of brush-border membrane vesicles from the ileum of rabbits; from tissue; host or cells: brush-border membrane vesicles from the terminal small intestine (ileum) of male New Zealand rabbits
T1 sequence (Q28727 1-347): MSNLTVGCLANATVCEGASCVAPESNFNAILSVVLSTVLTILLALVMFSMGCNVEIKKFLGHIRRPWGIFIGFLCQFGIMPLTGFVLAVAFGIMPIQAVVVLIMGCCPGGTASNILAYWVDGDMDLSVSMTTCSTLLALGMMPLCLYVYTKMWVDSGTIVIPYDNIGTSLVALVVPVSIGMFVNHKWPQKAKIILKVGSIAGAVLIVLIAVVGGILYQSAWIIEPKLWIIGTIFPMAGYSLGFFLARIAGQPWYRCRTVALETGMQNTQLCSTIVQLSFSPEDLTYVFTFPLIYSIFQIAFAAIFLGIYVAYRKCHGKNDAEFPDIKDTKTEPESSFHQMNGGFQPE
Briefly: Inhibition of Na^+ -dependent [^3 H]taurocholate absorption into brush-border membrane vesicles of the ileum. Format: biochemical, rabbit. The following applies: taurocholate 50 μM, pH 7.4, customarily 1 min. The method, then: The pharmacological data include a series of -tests in which the interaction of the compounds according to the invention with the intestinal bile acid transport system was investigated in the terminal small intestine:
1. Preparation of brush-border membrane vesicles from the ileum of rabbits
The preparation of brush-border membrane vesicles from the intestinal cells of the small intestine was carried out using the so-called Mg^2+ precipitation method. Male New Zealand rabbits (2-2.5 kg body weight) were sacrificed by intravenous injection of 0.5 ml of an aqueous solution of 2.5 mg of tetracaine HCl, 100 T 61® and 25 mg of mebezonium iodide. The small intestine was removed and rinsed with ice-cold physiological saline solution. The terminal […] of the small intestine (measured in the oral-rectal direction, i.e. the terminall ileum, which contains the active Na^+ -dependent bile acid transport system) were used for preparation of the brush-border membrane vesicles. The intestines were frozen at -80° C. under nitrogen in plastic bags. The frozen intestines were thawed in a water bath at 30° C. in order to prepare the membrane vesicles. The mucosa was scraped off and suspended in 60 ml of ice-cold 12 mM trio/HCl buffer (pH 7.1)/300 mM mannitol, 5 mM EGTA/10 mg/l of phenylmethylsulfonyl fluoride/1 mg/1 of soybean trypsin inhibitor (32 U/mg)/0.5 mg/l of bovine lung trypsin inhibitor (193 U/mg)/0.5 mg/l of bacitracin. After diluting to 300 ml with ice-cold distilled water, the suspension was homogenized with ice-cooling for 3 minutes at 75% of maximum power using an Ultraturrax (18 rod, IKA Werk Staufen, Federal Republic of Germany). After addition of 3 ml of 1M MgCl2 solution (final Concentration 10 mM), the homogenate was allowed to stand at 0° C. for exactly 1 minute. As a result of addition of Mg^2+, the cell membranes aggregate and precipitate with the exception of the brush-border membranes. After centrifugation at 3,000×g (5,000 rpm, SS-34 rotor) for 15 minutes, the precipitate is discarded and the supernatant which contains the brush-border membranes is centrifuged at 26,700×g (15,000 rpm, SS-34 rotor) for 30 minutes. The supernatant was discarded, and the precipitate was rehomogenized in 60 ml of 12 mM tris/HCl buffer (pH 7.1)/60 mM mannitol, 5 mM EGTA using a Potter Elvejhem homogenizer (Braun Melsungen, 900 rpm, 10 strokes). After addition of 0.1 ml of 1M MgCl2 solution and an incubation time of 15 minutes at 0° C., the mixture was again centrifuged at 3,000×g for 15 minutes. The supernatant was then again centrifuged at […] ( 15,000 rpm, SS-34 rotor) for 30 minutes. The precipitate was taken up in 30 ml of 10 mM tris/hepes buffer (pH 7.4) /300 mM mannitol and homogeneously resuspended by 20 strokes in a Potter Elvejhem homogenizer at 1,000 rpm. After centrifugation at 48,000×g (20,000 rpm, SS-34 rotor) for 30 minutes, the precipitate was taken up in 0.5 to 2 ml of tris/hepes buffer (pH 7.4)/280 mM mannitol (final concentration 20 mg/ml) and resuspended with the aid of a tuberculin syringe using a 27 gauge needle. The vesicles were either used immediately after preparation for transport investigations or stored at -196° C. in liquid nitrogen in 4 mg portions.
2. Inhibition of Na^+ -dependent [^3 H]taurocholate absorption into brush-border membrane vesicles of the ileum
The absorption of substrates into brush-border membrane vesicles was determined by means of the so-called membrane filtration technique. 10 μl of the vesicle suspension (100 μg of protein) were pipetted on the wall of a polystyrene incubation tube (11×70 mm) as a drop which contained the incubation medium together with the corresponding ligands (90 μl). […]

Setting [1] is: IC50, [^3 H]taurocholate absorption, rabbit ileum brush-border membrane vesicles.
Where [2] appears, read: IC50 Na, Na^+ -dependent transport component (difference between absorption in Na-T-B and K-T-B).
Setting [3] is: Na^+ -dependent transport component (difference between absorption in Na-T-B and K-T-B), read-out: IC50 Na.
Where [4] appears, read: [^3 H]taurocholate absorption, rabbit ileum brush-border membrane vesicles, read-out: IC50.

pIC50: −log10 of the molar value. Where two headings read alike, the source gives them in different places.

Turning to `C[C@H](CCC(=O)NCCCNC(=O)CCC(=O)NCCO[C@H]1CC[C@@]2(C)[C@@H](C1)C[C@@H](O)[C@@H]1[C@@H]2C[C@H](O)[C@]2(C)[C@@H]([C@H](C)CCC(=O)NCCS(=O)(=O)O)CC[C@@H]12)[C@H]1CC[C@H]2[C@@H]3[C@H](O)C[C@@H]4C[C@H](OCc5ccccc5)CC[C@]4(C)[C@H]3C[C@H](O)[C@]12C` [172 (taurine conj.)], the pIC50 is, setting by setting: under setting [1], 4.49; under setting [2], 4.70.
The matching figures for `C[C@H](CCC(=O)NCC(=O)O)[C@H]1CC[C@H]2[C@@H]3[C@H](O)C[C@@H]4C[C@@H](OCCNC(=O)CCC(=O)NCCCNC(=O)CC[C@@H](C)[C@H]5CC[C@H]6[C@@H]7[C@H](O)C[C@@H]8C[C@H](OCc9ccccc9)CC[C@]8(C)[C@H]7C[C@H](O)[C@]56C)CC[C@]4(C)[C@H]3CC[C@]12C` [191 (glycine conj.)]: 4.57 and 4.74.
The matching figures for `C[C@H](CCC(=O)NCCS(=O)(=O)O)[C@H]1CC[C@H]2[C@@H]3[C@H](O)C[C@@H]4C[C@@H](OCCNC(=O)CCC(=O)NCCCNC(=O)CC[C@@H](C)[C@H]5CC[C@H]6[C@@H]7[C@H](O)C[C@@H]8C[C@H](OCc9ccccc9)CC[C@]8(C)[C@H]7C[C@H](O)[C@]56C)CC[C@]4(C)[C@H]3CC[C@]12C` [191 (taurine conj.)]: 4.74 and 4.85.
Taken in the same sequence, the figures for `C[C@H](CCC(=O)NCCO[C@H]1CC[C@@]2(C)[C@@H](C1)C[C@@H](O)[C@@H]1[C@@H]2C[C@H](O)[C@]2(C)[C@@H]([C@H](C)CCC(=O)NCC(=O)O)CC[C@@H]12)[C@H]1CC[C@H]2[C@@H]3[C@H](O)C[C@@H]4C[C@H](O)CC[C@]4(C)[C@H]3C[C@H](O)[C@]12C` [368 (glycine conj.)] were 4.32 and 4.80.
With `C[C@H](CCC(=O)NCCO[C@H]1CC[C@@]2(C)[C@@H](C1)C[C@@H](O)[C@@H]1[C@@H]2C[C@H](O)[C@]2(C)[C@@H]([C@H](C)CCC(=O)NCCS(=O)(=O)O)CC[C@@H]12)[C@H]1CC[C@H]2[C@@H]3[C@H](O)C[C@@H]4C[C@H](OCc5ccccc5)CC[C@]4(C)[C@H]3C[C@H](O)[C@]12C` [369 (taurine conj.)], the pIC50 reads like this: under setting [1], 4.30; under setting [2], 4.74.
Turning to `C[C@H](CCC(=O)O)[C@H]1CC[C@H]2[C@@H]3[C@H](O)C[C@@H]4C[C@@H](OCCNC(=O)CCC(=O)NCCCNC(=O)CC[C@@H](C)[C@H]5CC[C@H]6[C@@H]7[C@H](O)C[C@@H]8C[C@H](OC(c9ccccc9)c9ccccc9)CC[C@]8(C)[C@H]7C[C@H](O)[C@]56C)CC[C@]4(C)[C@H]3C[C@H](O)[C@]12C` [Example 170], the negative-log IC50 (pIC50) runs as follows: under setting [3], 4.85; under setting [4], 4.60.
For `C[C@H](CCC(=O)O)[C@H]1CC[C@H]2[C@@H]3[C@H](O)C[C@@H]4C[C@@H](OCCNC(=O)CCC(=O)NCCCNC(=O)CC[C@@H](C)[C@H]5CC[C@H]6[C@@H]7[C@H](O)C[C@@H]8C[C@H](OCc9ccccc9)CC[C@]8(C)[C@H]7C[C@H](O)[C@]56C)CC[C@]4(C)[C@H]3CC[C@]12C` [Example 191], the pIC50 runs as follows: under setting [3], 4.54; under setting [4], 4.24.
The matching figures for `C[C@H](CCC(=O)NCCO[C@H]1CC[C@@]2(C)[C@@H](C1)C[C@@H](O)[C@@H]1[C@@H]2C[C@H](O)[C@]2(C)[C@@H]([C@H](C)CCC(=O)O)CC[C@@H]12)[C@H]1CC[C@H]2[C@@H]3[C@H](O)C[C@@H]4C[C@H](O)CC[C@]4(C)[C@H]3C[C@H](O)[C@]12C` [Example 368]: 4.74 and 4.35.
Taken in the same sequence, the figures for `C[C@H](CCC(=O)NCCO[C@H]1CC[C@@]2(C)[C@@H](C1)C[C@@H](O)[C@@H]1[C@@H]2C[C@H](O)[C@]2(C)[C@@H]([C@H](C)CCC(=O)O)CC[C@@H]12)[C@H]1CC[C@H]2[C@@H]3[C@H](O)C[C@@H]4C[C@H](OCc5ccccc5)CC[C@]4(C)[C@H]3C[C@H](O)[C@]12C` [Example 369] were 4.70 and 4.26.
In the case of `C[C@H](CCC(=O)NCCS(=O)(=O)O)[C@H]1CC[C@H]2[C@@H]3[C@H](O)C[C@@H]4C[C@@H](OCCNC(=O)CCC(=O)NCCCNC(=O)CC[C@@H](C)[C@H]5CC[C@H]6[C@@H]7[C@H](O)C[C@@H]8C[C@H](OC(c9ccccc9)c9ccccc9)CC[C@]8(C)[C@H]7C[C@H](O)[C@]56C)CC[C@]4(C)[C@H]3C[C@H](O)[C@]12C` [Example 527], the pIC50 reads like this: under setting [3], 5.00; under setting [4], 4.70.
Taken in the same sequence, the figures for `C[C@H](CCC(=O)NCC(=O)O)[C@H]1CC[C@H]2[C@@H]3[C@H](O)C[C@@H]4C[C@@H](OCCNC(=O)CCC(=O)NCCCNC(=O)CC[C@@H](C)[C@H]5CC[C@H]6[C@@H]7[C@H](O)C[C@@H]8C[C@H](OC(c9ccccc9)c9ccccc9)CC[C@]8(C)[C@H]7C[C@H](O)[C@]56C)CC[C@]4(C)[C@H]3C[C@H](O)[C@]12C` [Example 528] were 4.80 and 4.59.
Taken in the same sequence, the figures for `COC(=O)CC[C@@H](C)[C@H]1CC[C@H]2[C@@H]3[C@H](O)C[C@@H]4C[C@@H](OCCNC(=O)CCC(=O)NCCO[C@H]5CC[C@@]6(C)[C@@H](C5)C[C@@H](O)[C@@H]5[C@@H]6C[C@H](O)[C@]6(C)[C@@H]([C@H](C)CCC(=O)OC)CC[C@@H]56)CC[C@]4(C)[C@H]3C[C@H](O)[C@]12C` [Example 531] were 4.74 and less than 4.30.
The matching figures for `C[C@H](CCC(=O)O)[C@H]1CC[C@H]2[C@@H]3[C@H](O)C[C@@H]4C[C@@H](OCCNC(=O)CCC(=O)NCCO[C@H]5CC[C@@]6(C)[C@@H](C5)C[C@@H](O)[C@@H]5[C@@H]6C[C@H](O)[C@]6(C)[C@@H]([C@H](C)CCC(=O)O)CC[C@@H]56)CC[C@]4(C)[C@H]3C[C@H](O)[C@]12C` [Example 532]: 5.00 and 4.52.

Usually pIC50 stands for the negative decadic logarithm of the IC50, by convention in mol/L.
